# Laboratory results from patent US10206906B2, “Synergistic combination of a phenolic-rich maple syrup extract and an antibiotic” (priority 2015, dated 2019).
# Experiments:
# [1] = tested on: proton motive force-driven multidrug efflux pump of E. coli CFT073; assay: Ethidium bromide (EtBr) efflux assay; assay type: cell-based, Escherichia coli; details: PRMSE, catechol at 0.25 times the MIC; CCCP 100 μM; untreated cells 36.9
# Description: (§1) An overnight grown culture of each strain is diluted 1:100 using MHB-II broth to a final volume of 10 mL and grown to an OD600 of 0.8-1.0 (at 37° C., 150 rpm). […] The tubes are incubated for 1 h (37° C., 150 rpm). The inoculum is then adjusted to 0.4 OD600 with MHB-II broth containing 5 μM EtBr and 2 mL aliquots of this mixture are pelleted (5000×g, 10 min at 4° C.). The pellets are incubated on ice immediately, resuspended in 1 mL of MHB-II, and aliquoted (200 μL) into a polystyrene 96 well black, clear-bottom plate (Corning™, Fisher Scientific, ON, Canada). EtBr efflux from the cells is monitored at room temperature using the microplate reader (ex/em 530/600 nm). Readings are taken at 5 min intervals for 1 h to monitor efflux pump activity. The background fluorescence of the medium is subtracted from all measurements and the assay is repeated independently in triplicate.
# [2] = tested on: P. aeruginosa PA14; assay: Bacterial colony forming ability (CFU counts after exposure); assay type: cell-based, Pseudomonas aeruginosa; details: log decrease vs untreated control, 4 × MIC, 10 min, CTAB 10 μM
# Description: (§2) The BacLight kit (L-13152, Invitrogen™, Life Technologies Inc., Canada) is used to assess cell membrane damage. Overnight bacterial cultures are diluted 1:40 in fresh MHBII broth to a final volume of 5 mL, grown to an OD600 of 0.5-0.6, washed with filter-sterilized 10 mM phosphate buffered saline (PBS, pH 7.0) and resuspended in 1/10 of the original volume. […] Cultures are incubated at room temperature (21±2° C.) on a tube rocker for 10 min. At the end of the incubation period, an aliquot is taken for CFU counts and the remaining suspension is washed with 10 mM PBS and resuspended to an OD600) of 0.3. An aliquot (100 μL) of each bacterial suspension is removed and added to a 96-well, black, clear-bottom plate (Corning™, Fisher Scientific, ON, Canada) along with an equal volume of the BacLight™ reagent (2× stock solution, L13152, Invitrogen™, Life Technologies Inc., Canada) and the plates are incubated for 10 min at room temperature in the dark. At the end of the incubation period, fluorescence intensity is recorded for both kit components, SYTO-9 (ex/em 485/530 nm) and propidium iodide (ex/em 485/645 nm), using the microplate reader. Fluorescence readings from samples are normalized to the values obtained from untreated control to determine the ratio of membrane compromised cells to cells with intact membrane. Cetyltrimethylammonium bromide (CTAB, Sigma-Aldrich Canada), a cationic detergent that is known to cause membrane damage, is used at concentration of 10 μM as a positive control for membrane disruption.
# [3] = tested on: P. aeruginosa PAO1; assay: as above; assay type: cell-based, Pseudomonas aeruginosa; details: log decrease vs untreated control; 4 × MIC, 10 min; CTAB 10 μM
# Description: as §2
# [4] = tested on: outer membrane of E. coli CFT073; assay: Outer membrane permeabilization, NPN uptake assay; assay type: cell-based, Escherichia coli; details: sub-MIC; concentration giving maximal increase in NPN uptake
# Description: (§3) The cells are harvested, washed with 5 mM HEPES buffer (pH 7.2), and resuspended in the same volume (10 mL) of 5 mM HEPES buffer (pH 7.2) containing 1 mM N-ethylmaleimide (NEM, Sigma-Aldrich Canada). Aliquots (1 mL) are mixed with NPN to a final concentration of 10 μM (in cell suspension) and fluorescence is measured using the microplate reader (ex/em 350/420 nm).
# [5] = tested on: P. mirabilis HI4320; assay: Checkerboard microdilution assay (growth inhibition synergy); assay type: cell-based, Proteus mirabilis
# Description: The checkerboard microdilution assay is used for evaluation of in vitro antimicrobial synergy between two compounds (i.e., antibiotic/PRMSE, antibiotic/pure phenolic compound, and pure phenolic compounds with each other). Two-fold serial dilutions are prepared in MHB-II for each of the two compounds under study. The serial dilutions are then loaded into 96 well plates to achieve combinations having different concentrations of each of the two compounds. Each well is subsequently inoculated with 10^6 CFU mL^−1 of the desired bacterial strain and incubated at 37° C. for 18 h under static conditions. The Fractional Inhibitory Concentration Index (FICI) for each combination is calculated by using the following formula: FICcomponent 1=MICcomponent 1, in combination/MICcomponent 1,alone FICI=FICcomponent 1+FICcomponent 2
# The FICIs are interpreted as follows: FICI of […] (synergy); 0.5<FICI ≤1 (no interaction/indifference); FICI of >4 (antagonism).
# [6] = tested on: P. mirabilis HI4320; assay: Bacterial colony forming ability (CFU counts after exposure); assay type: cell-based, Proteus mirabilis; details: log decrease vs untreated control, 4 × MIC, 10 min, CTAB 10 μM
# Description: as §2
# [7] = tested on: cell membrane of E. coli CFT073; assay: BacLight membrane integrity assay; assay type: cell-based, Escherichia coli; details: PRMSE, catechol at 4 × MIC for 10 min; CTAB 10 μM; untreated = 100
# Description: as §2, with “Cetyltrimethylammonium bromide (CTAB, Sigma-Aldrich Canada), a cationic detergent that is known to cause membrane damage, is used at concentration of 10 μM as a positive control for membrane disruption.” left out
# [8] = tested on: outer membrane of P. mirabilis HI4320; assay: Outer membrane permeabilization, NPN uptake assay; assay type: cell-based, Proteus mirabilis; details: sub-MIC; concentration giving maximal increase in NPN uptake
# Description: as §3
# [9] = tested on: proton motive force-driven multidrug efflux pump of P. aeruginosa PA14; assay: Ethidium bromide (EtBr) efflux assay; assay type: cell-based, Pseudomonas aeruginosa; details: PRMSE, catechol at 0.25 times the MIC; CCCP 100 μM; untreated cells 30.9
# Description: as §1
# [10] = tested on: proton motive force-driven multidrug efflux pump of P. aeruginosa PAO1; assay: Ethidium bromide (EtBr) efflux assay; assay type: cell-based, Pseudomonas aeruginosa; details: PRMSE, catechol at 0.25 times the MIC; CCCP 100 μM; untreated cells 37.6
# Description: as §1
# [11] = tested on: cell membrane of P. mirabilis HI4320; assay: BacLight membrane integrity assay; assay type: cell-based, Proteus mirabilis; details: PRMSE, catechol at 4 × MIC for 10 min; CTAB 10 μM; untreated = 100
# Description: as §2, with “Cetyltrimethylammonium bromide (CTAB, Sigma-Aldrich Canada), a cationic detergent that is known to cause membrane damage, is used at concentration of 10 μM as a positive control for membrane disruption.” left out
smiles,measurement,setting,value
"Oc1ccccc1O [catechol, 1,2-dihydroxybenzene]",Efflux pump activity,[1],34.3%
same,Bacterial colony forming ability (Δ log CFU mL^−1),[2],1.9 Δ log CFU mL^−1
same,Bacterial colony forming ability (Δ log CFU mL^−1),[2]; listed as Catechol,≥ 1.5 Δ log CFU mL^−1
same,Bacterial colony forming ability (Δ log CFU mL^−1),[3],1.5 Δ log CFU mL^−1
same,Minimum permeabilization concentration (NPN assay),[4],0.06 mg/mL
same,FIC of ciprofloxacin,[5]; ciprofloxacin in combination with the labelled phenolic constituent,0.25
same,"FICI, gallic acid","[5]; labelled constituent + gallic acid, * = synergistic",0.37*
same,"FIC, gallic acid",[5]; labelled constituent combined with gallic acid,0.13
same,FIC of compound,[5]; labelled phenolic constituent in combination with ciprofloxacin,0.25
same,Bacterial colony forming ability (Δ log CFU mL^−1),[6],3.2 Δ log CFU mL^−1
same,Bacterial colony forming ability (Δ log CFU mL^−1),[6]; listed as Catechol,≥ 1.5 Δ log CFU mL^−1
same,% cells with uncompromised membrane (BacLight assay),[7],68%
same,Minimum permeabilization concentration,[8],1 mg/mL
same,Efflux pump activity,[9],29.9%
same,% EtBr efflux,[10],35.8%
same,% cells with uncompromised membrane,[11],50.3%
